Measured values reported in ChEMBL document CHEMBL3091384, “Chemical probes to study ADP-ribosylation: synthesis and biochemical evaluation of inhibitors of the human ADP-ribosyltransferase ARTD3/PARP3” (J Med Chem, 2013).

Columns and labels:
Homo sapiens = organism: Homo sapiens; test: Binding affinity to […] (unknown origin) assessed as change in melting temperature by thermal stabilization assay
[1] = target: T1, Poly [ADP-ribose] polymerase 1 (Homo sapiens, UniProt P09874)
[2] = system: Poly [ADP-ribose] polymerase 14, ARTD8/PARP14 (Homo sapiens)
[3] = target: Poly [ADP-ribose] polymerase 2 (Homo sapiens) (UniProt Q9UGN5)
[4] = target: T1, Poly [ADP-ribose] polymerase 1; remark: listed apart in the source
[5] = target: T2, Protein mono-ADP-ribosyltransferase PARP3 (Homo sapiens) (UniProt Q9Y6F1)
T2 sequence (whole entry): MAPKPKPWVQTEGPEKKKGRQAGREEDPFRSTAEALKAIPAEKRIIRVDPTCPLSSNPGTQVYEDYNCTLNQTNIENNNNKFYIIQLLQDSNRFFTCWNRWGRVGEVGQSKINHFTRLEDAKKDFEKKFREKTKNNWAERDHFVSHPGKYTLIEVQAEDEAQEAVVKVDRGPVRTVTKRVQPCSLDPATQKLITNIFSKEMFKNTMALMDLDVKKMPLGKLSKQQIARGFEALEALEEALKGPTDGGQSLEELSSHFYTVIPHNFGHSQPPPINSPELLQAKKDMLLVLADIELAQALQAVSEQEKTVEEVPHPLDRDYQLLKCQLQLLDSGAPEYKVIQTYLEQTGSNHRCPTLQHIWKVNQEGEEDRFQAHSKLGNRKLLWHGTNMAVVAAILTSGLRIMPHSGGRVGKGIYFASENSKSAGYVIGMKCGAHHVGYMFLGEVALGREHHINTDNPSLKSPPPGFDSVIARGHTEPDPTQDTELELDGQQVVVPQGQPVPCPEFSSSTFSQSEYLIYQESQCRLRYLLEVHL

T1 sequence (P09874 whole entry): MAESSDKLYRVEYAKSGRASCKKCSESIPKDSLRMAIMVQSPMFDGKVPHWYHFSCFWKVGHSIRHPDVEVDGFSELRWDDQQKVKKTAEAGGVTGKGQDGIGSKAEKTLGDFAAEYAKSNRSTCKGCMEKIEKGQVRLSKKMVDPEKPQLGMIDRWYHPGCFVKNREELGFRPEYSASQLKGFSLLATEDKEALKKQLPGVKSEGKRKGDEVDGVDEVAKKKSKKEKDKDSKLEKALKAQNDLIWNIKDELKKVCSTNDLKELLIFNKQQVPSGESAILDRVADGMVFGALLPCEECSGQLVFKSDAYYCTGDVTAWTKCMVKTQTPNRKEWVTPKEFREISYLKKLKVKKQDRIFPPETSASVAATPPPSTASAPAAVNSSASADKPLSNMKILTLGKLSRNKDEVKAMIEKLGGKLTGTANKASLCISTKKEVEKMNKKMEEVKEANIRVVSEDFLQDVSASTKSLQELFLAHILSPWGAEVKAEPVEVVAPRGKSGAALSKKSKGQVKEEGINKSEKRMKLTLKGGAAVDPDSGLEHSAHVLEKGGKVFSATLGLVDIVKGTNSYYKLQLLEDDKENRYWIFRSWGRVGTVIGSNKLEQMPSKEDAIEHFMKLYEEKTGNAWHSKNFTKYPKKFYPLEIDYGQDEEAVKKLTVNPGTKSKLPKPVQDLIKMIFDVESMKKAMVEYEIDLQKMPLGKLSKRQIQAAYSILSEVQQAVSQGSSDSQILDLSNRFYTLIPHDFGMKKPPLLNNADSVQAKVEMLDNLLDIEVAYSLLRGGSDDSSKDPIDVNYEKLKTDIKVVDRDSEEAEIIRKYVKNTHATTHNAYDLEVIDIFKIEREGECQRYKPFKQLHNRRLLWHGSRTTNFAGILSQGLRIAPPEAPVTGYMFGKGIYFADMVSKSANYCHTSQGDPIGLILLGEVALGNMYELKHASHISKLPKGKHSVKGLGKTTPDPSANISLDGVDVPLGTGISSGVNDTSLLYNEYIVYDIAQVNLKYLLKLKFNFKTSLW
Chain of Poly [ADP-ribose] polymerase 2 (Homo sapiens) (Q9UGN5 whole entry): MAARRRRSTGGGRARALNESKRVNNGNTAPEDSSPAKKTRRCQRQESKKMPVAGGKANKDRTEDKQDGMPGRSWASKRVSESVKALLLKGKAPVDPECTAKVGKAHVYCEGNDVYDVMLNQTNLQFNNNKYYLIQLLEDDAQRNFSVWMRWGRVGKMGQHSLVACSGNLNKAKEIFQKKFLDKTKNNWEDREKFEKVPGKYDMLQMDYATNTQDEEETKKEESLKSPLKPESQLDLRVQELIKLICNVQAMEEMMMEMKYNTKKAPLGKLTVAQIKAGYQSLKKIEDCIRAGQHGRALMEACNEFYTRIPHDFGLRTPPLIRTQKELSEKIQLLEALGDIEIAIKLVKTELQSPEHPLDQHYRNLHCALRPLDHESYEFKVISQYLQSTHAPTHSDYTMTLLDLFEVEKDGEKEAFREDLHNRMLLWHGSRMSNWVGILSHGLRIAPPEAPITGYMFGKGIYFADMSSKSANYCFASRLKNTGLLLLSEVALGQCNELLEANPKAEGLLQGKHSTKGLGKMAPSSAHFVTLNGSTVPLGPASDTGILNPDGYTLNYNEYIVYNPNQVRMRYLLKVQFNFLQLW

Structure (SMILES): O=C(CCc1nc2ccccc2c(=O)[nH]1)N[C@@H]1CCc2ccccc21
- ΔTm (Homo sapiens): 0.8 °C
- IC50 [1]: 780 nM
- ΔTm [2]: 0.1 °C
- ΔTm [3]: 1.92 °C
- ΔTm [4]: 2.37 °C

Structure (SMILES): O=C(CCc1nc2ccccc2c(=O)[nH]1)N[C@H]1CCc2ccccc21
- ΔTm (Homo sapiens): 0.84 °C
- IC50 [1]: 510 nM
- ΔTm [2]: 0.18 °C
- ΔTm [3]: 1.39 °C
- ΔTm [4]: 2.38 °C

Structure (SMILES): O=C(CCc1nc2ccccc2c(=O)[nH]1)NCc1ccccc1O
- ΔTm (Homo sapiens): 0.7 °C
- ΔTm [2]: -0.27 °C
- ΔTm [3]: 1.3 °C
- ΔTm [4]: 2.79 °C
- ΔTm [5]: 6.31 °C

Structure (SMILES): C[C@H](NC(=O)CCc1nc2ccccc2c(=O)[nH]1)c1ccc(Cl)cc1
- ΔTm (Homo sapiens): 0.18 °C
- ΔTm [2]: 0.04 °C
- ΔTm [3]: -0.59 °C
- ΔTm [4]: 0.04 °C
- ΔTm [5]: 0.12 °C

Structure (SMILES): O=C(CCCc1nc2ccccc2c(=O)[nH]1)N[C@H]1CCc2ccccc21
- ΔTm (Homo sapiens): 0.59 °C
- ΔTm [2]: -0.18 °C
- ΔTm [3]: 1.27 °C
- ΔTm [4]: 1.88 °C
- ΔTm [5]: 4.69 °C

Structure (SMILES): CCC(=O)[C@H](Cc1ccccc1)NC(=O)CCc1nc2ccccc2c(=O)[nH]1
- ΔTm (Homo sapiens): 0.07 °C
- ΔTm [2]: 0.13 °C
- ΔTm [3]: 0.98 °C
- ΔTm [4]: 1.93 °C
- ΔTm [5]: 5.71 °C

Structure (SMILES): C[C@@H](NC(=O)Cc1nc2ccccc2c(=O)[nH]1)c1ccccc1
- ΔTm (Homo sapiens): 0.05 °C
- ΔTm [2]: -0.04 °C
- ΔTm [3]: -0.25 °C
- ΔTm [4]: 0.37 °C
- ΔTm [5]: 0.63 °C

Structure (SMILES): O=C(CCc1nc2cc(Cl)ccc2c(=O)[nH]1)N[C@H](CO)c1ccccc1
- ΔTm (Homo sapiens): 0.36 °C
- ΔTm [2]: -0.25 °C
- ΔTm [3]: 0.98 °C
- ΔTm [4]: 0.76 °C
- ΔTm [5]: 0.5 °C

Structure (SMILES): C[C@H](NC(=O)CCc1nc2ccccc2c(=O)[nH]1)c1cccc(F)c1
- ΔTm (Homo sapiens): 0.13 °C
- ΔTm [2]: -0.18 °C
- ΔTm [3]: 0.06 °C
- ΔTm [4]: 1 °C
- ΔTm [5]: 0.75 °C

Structure (SMILES): C[C@H](NC(=O)NCc1nc2ccccc2c(=O)[nH]1)c1ccccc1
- ΔTm (Homo sapiens): 0.39 °C
- ΔTm [2]: -0.77 °C
- ΔTm [3]: 0.33 °C
- ΔTm [4]: 0.88 °C
- ΔTm [5]: 4.95 °C

Structure (SMILES): O=C(CCCc1nc2ccccc2c(=O)[nH]1)NC(c1ccccc1)c1ccccc1
- ΔTm (Homo sapiens): 0.41 °C
- ΔTm [2]: 0.02 °C
- ΔTm [3]: 0.53 °C
- ΔTm [4]: 0.44 °C
- ΔTm [5]: 0.09 °C
